This note sets out measurements from ChEMBL document CHEMBL1833796, “Locating the binding sites of anticancer tamoxifen and its metabolites 4-hydroxytamoxifen and endoxifen on bovine serum albumin” (Eur J Med Chem, 2011).

SMILES strings stand for the structures.

Holding throughout (assay type): ADME
The target of series [1] is T1, Albumin (Bos taurus, UniProt P02769). Briefly: Effect on secondary structure of bovine serum albumin assessed as turn structure content at 0.5 uM at pH 7.4 by circular dichroism method (reference value: 12 %). Particulars: cattle, pH 7.4, 0.5 µM. A general note: Circular dichroism is widely used to follow secondary structure.
T1 sequence (P02769 whole entry): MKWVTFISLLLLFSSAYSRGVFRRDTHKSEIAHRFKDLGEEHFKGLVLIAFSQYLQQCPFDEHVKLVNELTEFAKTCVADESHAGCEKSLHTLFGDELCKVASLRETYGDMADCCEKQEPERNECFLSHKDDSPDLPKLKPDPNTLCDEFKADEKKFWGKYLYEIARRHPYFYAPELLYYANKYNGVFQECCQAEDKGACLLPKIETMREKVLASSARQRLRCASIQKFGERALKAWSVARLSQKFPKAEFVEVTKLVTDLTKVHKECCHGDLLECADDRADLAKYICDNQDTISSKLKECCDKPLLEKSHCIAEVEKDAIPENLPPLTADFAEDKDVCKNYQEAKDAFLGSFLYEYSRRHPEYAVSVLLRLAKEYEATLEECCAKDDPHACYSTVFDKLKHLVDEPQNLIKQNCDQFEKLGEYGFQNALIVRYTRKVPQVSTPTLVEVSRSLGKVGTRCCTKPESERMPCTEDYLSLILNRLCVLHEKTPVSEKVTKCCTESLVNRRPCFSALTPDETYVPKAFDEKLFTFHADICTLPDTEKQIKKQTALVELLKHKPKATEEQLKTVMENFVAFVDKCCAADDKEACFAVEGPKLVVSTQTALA
For series [2], the target named is T1, Albumin. Briefly: Effect on secondary structure of bovine serum albumin assessed as beta antiparallel content at 0.5 uM at pH 7.4 by circular dichroism method (reference value: 3 %). Particulars: cattle, pH 7.4, 0.5 µM.
Series [3] has as its target T1, Albumin. Description: Effect on secondary structure of bovine serum albumin assessed as alpha-helix content at 0.5 uM at pH 7.4 by circular dichroism method (reference value: 63 %). Particulars: cattle, pH 7.4, 0.5 µM.
Series [4] deals with T1, Albumin. Description: Binding affinity to bovine serum albumin at pH 7.4 by fluorescence spectroscopy. As to conditions: cattle, isolated protein.
For series [5], the target named is T1, Albumin. Description: Binding affinity to bovine serum albumin at pH 7.4 by McGhee and von Hippel method. Particulars: cattle, isolated protein.
In series [6] the target is T1, Albumin. Description: Effect on secondary structure of bovine serum albumin assessed as beta-sheet content at 0.5 uM at pH 7.4 by circular dichroism method (reference value: 16 %). Particulars: cattle, pH 7.4, 0.5 µM.
For series [7], the target named is T1, Albumin. Briefly: Effect on secondary structure of bovine serum albumin assessed as random coil content at 0.5 uM at pH 7.4 by circular dichroism method (reference value: 6 %). Particulars: cattle, pH 7.4, 0.5 µM.
The target of series [8] is T1, Albumin. Description: Binding affinity to bovine serum albumin at pH 7.4 by Stern-Volmer plot. Particulars: cattle, isolated protein.
Series [9] concerns the target T1, Albumin. Description: Binding affinity to bovine serum albumin at 1 to 100 uM at pH 7.4 by fluorescence spectroscopy. As to conditions: cattle, isolated protein, pH 7.4, 100 µM.

`CCC(=C(c1ccc(O)cc1)c1ccc(OCCN(C)C)cc1)c1ccccc1`: the Activity at Albumin [1] is listed as 21%; on Albumin [2], 3%; on Albumin [3], 39%; on Albumin [6], 17%; on Albumin [7], 20%. Moreover, the K at Albumin [4] worked out at 1.8 ×10⁴ /M; at Albumin [5], 1.5 ×10⁴ /M; on Albumin [8], 1.8 ×10⁴ /M.

In the case of `CC/C(=C(\c1ccc(O)cc1)c1ccc(OCCNC)cc1)c1ccccc1` [ENDOXIFEN], the Activity on Albumin [1] stood at 21%; at Albumin [2], 3%; at Albumin [3], 47%; on Albumin [6] it was 14%; at Albumin [7], 15%. For the same compound, the K at Albumin [4] is 8.01 ×10³ /M; on Albumin [5], 1.1 ×10⁴ /M; at Albumin [8], 0.8 ×10⁴ /M.

With `CC/C(=C(\c1ccccc1)c1ccc(OCCN(C)C)cc1)c1ccccc1` [TAMOXIFEN], the Activity on Albumin [1] came out at 20%; at Albumin [2] it was 3%; at Albumin [3] it was 41%; at Albumin [6] it was 26%; at Albumin [9], 98%; at Albumin [7], 10%. Moreover, the K worked out at 1.96 ×10⁴ /M on Albumin [4], 1.65 ×10⁴ /M on Albumin [5] and 1.96 ×10⁴ /M on Albumin [8].
